Results taken from patent US11427595B2, “Compositions and methods for inhibiting viral infection” (Trustees of Boston University, priority 2018, dated 2022).

What was measured:
[1] = test system: Dengue virus (serotype 2, Thailand 16681 strain); conditions: comparison named in the text, no data shown; cited from earlier work
[2] = test system: WNV viral envelope protein-mediated entry; assay type: cell-based, West Nile virus; conditions: Huh7.5 cells, FIG. 73C
[3] = test system: JEV viral envelope protein-mediated entry; assay type: cell-based, Japanese encephalitis virus; conditions: Huh7.5 cells, FIG. 73C
[4] = test system: Denv viral envelope protein-mediated entry; assay type: cell-based, Dengue virus; conditions: Huh7.5 cells, FIG. 73C
[5] = test system: translation; conditions: previous studies; cited from earlier work
[6] = test system: Zika viral envelope protein-mediated entry; assay type: cell-based, Zika virus; conditions: Huh7.5 cells, FIG. 73C
[7] = test system: OHFV viral envelope protein-mediated entry; assay type: cell-based, Omsk Hemorrhagic Fever Virus (OHFV)

SMILES | inhibition of Dengue virus infection [1] | % infection, WNV envelope [2] | % infection, JEV envelope [3] | % infection, Denv envelope [4] | translation inhibition (in words) [5] | % infection, Zika envelope [6] | % infection, OHFV envelope [7]
COc1ccc([C@@]23Oc4cc(OC)cc(OC)c4[C@]2(O)[C@H](O)[C@H](C(=O)N(C)C)[C@H]3c2ccccc2)cc1 [rocaglamide] | inhibited Dengue virus infection | – | – | – | – | – | –
COc1ccc([C@@]23Oc4cc(OC)cc(OC)c4[C@]2(O)C2=C(C(=O)N4CCC[C@H]4N2)[C@H]3c2ccccc2)cc1 [compound 5, aglaiastatin] | – | under 1% | under 1% | under 1% | promising translation inhibitor | under 1% | under 1%
